This passage reports IC50 results from patent publication US9732119B2, “Immunomodulators” (BRISTOL-MYERS SQUIBB COMPANY, priority 2014, dated 2017).

Positions of bridges follow the written chain, without caps; N, C: chain ends. Non-standard residues stand in square brackets, D forms with d. Residues, ends and D or L forms follow the SMILES beside them. Trp(1-CH2COOH) = N[C@@H](Cc1cn(CC(=O)O)c2ccccc12)C(=O)O; Phe(4-F) = N[C@@H](Cc1ccc(F)cc1)C(=O)O; Phe(4-Me) = Cc1ccc(C[C@H](N)C(=O)O)cc1; Hyp = O=C(O)[C@@H]1C[C@@H](O)CN1; Aad = N[C@@H](CCCC(=O)O)C(=O)O; NMeNle = CCCC[C@H](NC)C(=O)O; dOrn = NCCC[C@@H](N)C(=O)O; Pip = O=C(O)[C@@H]1CCCCN1; Orn = NCCC[C@H](N)C(=O)O; Dab = NCC[C@H](N)C(=O)O; Dap = NC[C@H](N)C(=O)O; Ava = NCCCCC(=O)O

The target in the test is T1, PD-1-Ig binding to PD-L1-TVMV-His (PD-L1-His) (Homo sapiens, UniProt Q9NZQ7).
T1 construct: hPDL1(19-239)-TVMV-His; made in house; host or cells: HEK293T cells
T1 sequence (Q9NZQ7 with tags, fused parts or gaps): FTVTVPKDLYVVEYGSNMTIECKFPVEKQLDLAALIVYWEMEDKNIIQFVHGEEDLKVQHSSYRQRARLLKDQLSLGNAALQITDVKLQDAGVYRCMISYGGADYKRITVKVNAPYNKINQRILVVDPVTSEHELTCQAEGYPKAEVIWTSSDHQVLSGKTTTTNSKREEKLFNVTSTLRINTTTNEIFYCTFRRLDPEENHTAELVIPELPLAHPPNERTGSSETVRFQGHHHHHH
Put plainly: PD-1/PD-L1 Homogenous Time-Resolved Fluorescence (HTRF) binding assay. Conditions: PD-1-Ig (20 nM) / PD-L1-His (10 nM). In a few lines: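 HTRF competition: compound pre-incubated 15 min with PD-L1-His (10 nM final), then PD-1-Ig (20 nM final) added for 15 min in dPBS, 0.1% BSA, 0.05% Tween-20. Detection with Eu-cryptate anti-Ig (1 nM) and APC anti-His (20 nM) antibodies.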

With `CCCC[C@H]1C(=O)N(C)[C@@H](CCCC)C(=O)N[C@@H](CCC(=O)O)C(=O)N[C@H](C(=O)NCC(N)=O)CNCC(=O)N[C@@H](Cc2ccc(F)cc2)C(=O)N(C)[C@@H](C)C(=O)N[C@@H](CC(N)=O)C(=O)N2CCC[C@H]2C(=O)N[C@@H](CCC(N)=O)C(=O)N[C@@H](CCC(N)=O)C(=O)N2C[C@H](O)C[C@H]2C(=O)N[C@@H](Cc2c[nH]c3ccccc23)C(=O)N[C@@H](CC(N)=O)C(=O)N[C@@H](Cc2cn(CC(=O)O)c3ccccc23)C(=O)N1C` [Example 9025], for the setting “numeric values”, the IC50 is 16 nM.

Compound `CCCC[C@H]1C(=O)N(C)[C@@H](CCCC)C(=O)N[C@@H](CCC(=O)O)C(=O)N[C@H](C(N)=O)CNCC(=O)N[C@@H](Cc2ccc(O)cc2)C(=O)N2CCCC[C@H]2C(=O)N[C@@H](CC(N)=O)C(=O)N2CCC[C@H]2C(=O)N[C@@H](CCC(N)=O)C(=O)N[C@@H](CCC(=O)O)C(=O)N2C[C@H](O)C[C@H]2C(=O)N[C@@H](Cc2c[nH]c3ccccc23)C(=O)N[C@@H](CC(N)=O)C(=O)N[C@@H](Cc2cn(CC(=O)O)c3ccccc23)C(=O)N1C` [Example 9044] showed an IC50 (range classes) of 1 to 9.9 nM.

`CCCC[C@H]1C(=O)N(C)[C@@H](CCCC)C(=O)N[C@@H](CC(C)C)C(=O)N[C@H](C(N)=O)CNCC(=O)N[C@@H](Cc2ccc(O)cc2)C(=O)N2CCCC[C@H]2C(=O)N[C@@H](CC(N)=O)C(=O)N2CCC[C@H]2C(=O)N[C@@H](Cc2c[nH]cn2)C(=O)N[C@@H](CCC(N)=O)C(=O)N2C[C@H](O)C[C@H]2C(=O)N[C@@H](Cc2c[nH]c3ccccc23)C(=O)N[C@@H](C)C(=O)N[C@@H](Cc2cn(CC(=O)O)c3ccccc23)C(=O)N1C` [Example 9051] displayed an IC50 (range classes) of 1 to 9.9 nM.

In turn, `CCCC[C@H]1C(=O)N(C)[C@@H](CCCC)C(=O)N[C@@H](CC(C)C)C(=O)N[C@H](C(N)=O)COCC(=O)N[C@@H](Cc2ccc(O)cc2)C(=O)N2CCCC[C@H]2C(=O)N[C@@H](CC(N)=O)C(=O)N2CCC[C@H]2C(=O)N[C@@H](CN)C(=O)N[C@@H](CC(C)C)C(=O)N2C[C@H](O)C[C@H]2C(=O)N[C@@H](Cc2c[nH]c3ccccc23)C(=O)N[C@@H](CCN)C(=O)N[C@@H](Cc2cn(CC(=O)O)c3ccccc23)C(=O)N1C` [Example 10533] had an IC50 (range classes) of 1 to 9.9 nM.

Consider `CCCC[C@H]1C(=O)N(C)[C@@H](CCCC)C(=O)N[C@@H](CC(C)C)C(=O)NCCC[C@H](N)C(=O)N[C@@H](Cc2ccc(C)cc2)C(=O)N2CCCC[C@H]2C(=O)N[C@@H](CC(N)=O)C(=O)N2CCC[C@H]2C(=O)N[C@@H](CN)C(=O)N[C@@H](CCC(=O)O)C(=O)N2C[C@H](O)C[C@H]2C(=O)N[C@@H](Cc2c[nH]c3ccccc23)C(=O)N[C@@H](CCN)C(=O)N[C@@H](Cc2cn(CC(=O)O)c3ccccc23)C(=O)N1C` [Example 10547] (H-[Orn][Phe(4-Me)][Pip]NP[Dap]E[Hyp]W[Dab][Trp(1-CH2COOH)][NMeNle][NMeNle]L; lactam 1-C), for which the IC50 (range classes) was 10 to 99 nM.

`CCCC[C@H]1C(=O)N(C)[C@@H](CCCC)C(=O)NC(CC(C)C)C(=O)N[C@H](C(=O)NCC(N)=O)CNCC(=O)N[C@@H](Cc2ccc(O)cc2)C(=O)N(C)[C@@H](C)C(=O)N[C@@H](CC(N)=O)C(=O)N2CCC[C@H]2C(=O)N[C@@H](CN)C(=O)N[C@@H](CC(C)C)C(=O)N2C[C@H](O)C[C@H]2C(=O)N[C@@H](Cc2c[nH]c3ccccc23)C(=O)N[C@@H](CCCCN)C(=O)N[C@@H](Cc2cn(CC(=O)O)c3ccccc23)C(=O)N1C` (some centres unmarked) [Example 1032]: the half-maximal inhibitory concentration (IC50) (range classes) was in the range of 1 to 9.9 nM.

The compound `CCCC[C@H]1C(=O)N(C)[C@@H](CCCC)C(=O)N[C@@H](CC(C)C)C(=O)N[C@H](C(N)=O)CCCC(=O)N[C@@H](Cc2ccc(F)cc2)C(=O)N2CCCC[C@H]2C(=O)N[C@@H](CC(N)=O)C(=O)N2CCC[C@H]2C(=O)N[C@@H](CN)C(=O)N[C@@H](CCC(=O)O)C(=O)N2C[C@H](O)C[C@H]2C(=O)N[C@@H](Cc2c[nH]c3ccccc23)C(=O)N[C@@H](CCN)C(=O)N[C@@H](Cc2cn(CC(=O)O)c3ccccc23)C(=O)N1C` [Example 10532] ([Phe(4-F)][Pip]NP[Dap]E[Hyp]W[Dab][Trp(1-CH2COOH)][NMeNle][NMeNle]L[Aad]-NH2; lactam N-14) had an IC50 (range classes) of 1 to 9.9 nM.

The compound `CCCC[C@H]1C(=O)N(C)[C@@H](CCCC)C(=O)N[C@@H](CCC(=O)O)C(=O)N[C@H](C(N)=O)CNCC(=O)N[C@@H](Cc2ccc(O)cc2)C(=O)N2CCCC[C@H]2C(=O)N[C@@H](CC(N)=O)C(=O)N2CCC[C@H]2C(=O)N[C@@H](CCC(N)=O)C(=O)N[C@@H](CC(=O)O)C(=O)N2C[C@H](O)C[C@H]2C(=O)N[C@@H](Cc2c[nH]c3ccccc23)C(=O)N[C@@H](CC(N)=O)C(=O)N[C@@H](Cc2cn(CC(=O)O)c3ccccc23)C(=O)N1C` [Example 9043] registered an IC50 (range classes) of 1 to 9.9 nM.

Turning to `CCCC[C@H]1C(=O)N(C)[C@@H](CCCC)C(=O)N[C@@H](CC(C)C)C(=O)N[C@H](C(=O)NCC(N)=O)CNCC(=O)N[C@@H](Cc2ccc(O)cc2)C(=O)N(C)[C@@H](C)C(=O)N[C@@H](CC(N)=O)C(=O)N2CCC[C@H]2C(=O)N[C@@H](Cc2cnc[nH]2)C(=O)N[C@@H](CCC(N)=O)C(=O)N2C[C@H](O)C[C@H]2C(=O)N[C@@H](Cc2c[nH]c3ccccc23)C(=O)N[C@@H](CO)C(=O)N[C@@H](Cc2cn(CC(=O)O)c3ccccc23)C(=O)N1C` [Example 10008], under “range classes”, the IC50 lay in the range of 1 to 9.9 nM.

Take `CCCC[C@H]1C(=O)N(C)[C@@H](CCCC)C(=O)N[C@@H](C)C(=O)N[C@H](C(=O)NCC(N)=O)CCCNCC(=O)N[C@@H](Cc2ccc(O)cc2)C(=O)N(C)[C@@H](C)C(=O)N[C@@H](CC(=O)O)C(=O)N2CCC[C@H]2C(=O)N[C@@H](Cc2cnc[nH]2)C(=O)N[C@@H](CCC(N)=O)C(=O)N2C[C@H](O)C[C@H]2C(=O)N[C@@H](Cc2c[nH]c3ccccc23)C(=O)N[C@@H](CO)C(=O)N[C@@H](Cc2c[nH]c3ccccc23)C(=O)N1C` [Example 10013]: under “numeric values”, the IC50 came out at 70 nM.

`CCCC[C@H]1C(=O)N(C)[C@@H](CCCC)C(=O)NC(CC(C)C)C(=O)N[C@H](C(=O)NCC(N)=O)CNCC(=O)N[C@@H](Cc2ccc(O)cc2)C(=O)N(C)[C@@H](C)C(=O)N[C@@H](CC(N)=O)C(=O)N2CCC[C@H]2C(=O)N[C@@H](CC(N)=O)C(=O)N[C@@H](CC(C)C)C(=O)N2CCC[C@H]2C(=O)N[C@@H](Cc2c[nH]c3ccccc23)C(=O)N[C@@H](CC(N)=O)C(=O)N[C@@H](Cc2c[nH]c3ccccc23)C(=O)N1C` (some centres unmarked) [Example 10002]: where the note is “range classes”, the IC50 was 10 to 99 nM.

Under “range classes”, `CCCC[C@H]1C(=O)N(C)[C@@H](CCCC)C(=O)N[C@@H](CC(C)C)C(=O)NCCCCC(=O)N[C@@H](Cc2ccc(O)cc2)C(=O)N2CCCC[C@H]2C(=O)N[C@@H](CC(=O)O)C(=O)N2CCC[C@H]2C(=O)N[C@@H](Cc2c[nH]cn2)C(=O)N[C@@H](CCCCN)C(=O)N2C[C@H](O)C[C@H]2C(=O)N[C@@H](Cc2c[nH]c3ccccc23)C(=O)N[C@@H](CCCCN)C(=O)N[C@@H](Cc2cn(CC(=O)O)c3ccccc23)C(=O)N1C` [Example 10510] (cyclo([Ava]Y[Pip]DPHK[Hyp]WK[Trp(1-CH2COOH)][NMeNle][NMeNle]L)) yielded an IC50 of 100 to 10000 nM.

`CCCC[C@H]1C(=O)N(C)[C@@H](CCCC)C(=O)N[C@@H](CC(C)C)C(=O)N[C@H](C(=O)NCC(N)=O)CNCC(=O)N[C@@H](Cc2ccc(O)cc2)C(=O)N(C)[C@@H](C)C(=O)N[C@@H](CC(N)=O)C(=O)N2CCC[C@H]2C(=O)N[C@@H](Cc2cnc[nH]2)C(=O)N[C@@H](CCC(N)=O)C(=O)N2C[C@H](O)C[C@H]2C(=O)N[C@@H](Cc2c[nH]c3ccccc23)C(=O)NCC(=O)N[C@@H](Cc2c[nH]c3ccccc23)C(=O)N1C` [Example 10017] showed an IC50 (range classes) of 1 to 9.9 nM.

Where the note is “range classes”, `CCCC[C@H]1C(=O)N(C)[C@@H](CCCC)C(=O)N[C@@H](CC(C)C)C(=O)N[C@H](C(N)=O)CNCC(=O)N[C@@H](Cc2ccc(O)cc2)C(=O)N2CCCC[C@H]2C(=O)N[C@@H](CC(=O)O)C(=O)N2CCC[C@H]2C(=O)N[C@@H](CCC(N)=O)C(=O)N[C@@H](CCC(N)=O)C(=O)N2C[C@H](O)C[C@H]2C(=O)N[C@@H](Cc2c[nH]c3ccccc23)C(=O)N[C@@H](CC(N)=O)C(=O)N[C@@H](Cc2cn(CC(=O)O)c3ccccc23)C(=O)N1C` [Example 9037] registered an IC50 of 1 to 9.9 nM.

`CCCC[C@H]1C(=O)N(C)[C@@H](CCCC)C(=O)N[C@@H](CC(C)C)C(=O)N[C@H](C(=O)NCC(N)=O)CNCC(=O)N[C@@H](Cc2ccc(O)cc2)C(=O)N(C)[C@@H](C)C(=O)N[C@@H](CC(N)=O)C(=O)N2CCC[C@H]2C(=O)N[C@@H](CCC(N)=O)C(=O)N[C@@H](CCC(=O)O)C(=O)N2C[C@H](O)C[C@H]2C(=O)N[C@@H](Cc2c[nH]c3ccccc23)C(=O)N[C@@H](CC(N)=O)C(=O)N[C@@H](Cc2cn(CC(=O)O)c3ccccc23)C(=O)N1C` [Example 9007] displayed an IC50 (numeric values) of 5 nM.

For the setting “range classes”, `CCCC[C@H]1C(=O)N(C)[C@@H](CCCC)C(=O)N[C@@H](CC(C)C)C(=O)NCCC[C@@H](N)C(=O)N[C@@H](Cc2ccc(O)cc2)C(=O)N2CCCC[C@H]2C(=O)N[C@@H](CC(N)=O)C(=O)N2CCC[C@H]2C(=O)N[C@@H](CN)C(=O)N[C@@H](CCC(=O)O)C(=O)N2C[C@H](O)C[C@H]2C(=O)N[C@@H](Cc2c[nH]c3ccccc23)C(=O)N[C@@H](CCN)C(=O)N[C@@H](Cc2cn(CC(=O)O)c3ccccc23)C(=O)N1C` [Example 10568] (H-[dOrn]Y[Pip]NP[Dap]E[Hyp]W[Dab][Trp(1-CH2COOH)][NMeNle][NMeNle]L; lactam 1-C) gave an IC50 of 1 to 9.9 nM.

As for `CCCC[C@H]1C(=O)N(C)[C@@H](CCCC)C(=O)N[C@@H](CO)C(=O)N[C@H](C(=O)NCC(N)=O)CCCNCC(=O)N[C@@H](Cc2ccc(O)cc2)C(=O)N(C)[C@@H](C)C(=O)N[C@@H](CC(N)=O)C(=O)N2CCC[C@H]2C(=O)N[C@@H](Cc2cnc[nH]2)C(=O)N[C@@H](CCC(N)=O)C(=O)N2C[C@H](O)C[C@H]2C(=O)N[C@@H](Cc2c[nH]c3ccccc23)C(=O)N[C@@H](CO)C(=O)N[C@@H](Cc2c[nH]c3ccccc23)C(=O)N1C` [Example 10025], the IC50 (range classes) fell in the range of 100 to 10000 nM.
